Each compound was assayed against T1, human IKK-β (Homo sapiens, UniProt O14920) (assay: IKK-β kinase inhibitory assay). Details: compounds as yielded by solid phase synthesis, purity about 40 to 90%, read-out: In vitro activity grade (In vitro IC50).
T1 construct: A cDNA fragment encoding human IKK-β open reading frame was generated by PCR; His tag (from pcDNA3.1/His C); made in house; host or cells: Sf21 insect cells (baculovirus); substrate made in E. coli
T1 sequence (O14920 1-756): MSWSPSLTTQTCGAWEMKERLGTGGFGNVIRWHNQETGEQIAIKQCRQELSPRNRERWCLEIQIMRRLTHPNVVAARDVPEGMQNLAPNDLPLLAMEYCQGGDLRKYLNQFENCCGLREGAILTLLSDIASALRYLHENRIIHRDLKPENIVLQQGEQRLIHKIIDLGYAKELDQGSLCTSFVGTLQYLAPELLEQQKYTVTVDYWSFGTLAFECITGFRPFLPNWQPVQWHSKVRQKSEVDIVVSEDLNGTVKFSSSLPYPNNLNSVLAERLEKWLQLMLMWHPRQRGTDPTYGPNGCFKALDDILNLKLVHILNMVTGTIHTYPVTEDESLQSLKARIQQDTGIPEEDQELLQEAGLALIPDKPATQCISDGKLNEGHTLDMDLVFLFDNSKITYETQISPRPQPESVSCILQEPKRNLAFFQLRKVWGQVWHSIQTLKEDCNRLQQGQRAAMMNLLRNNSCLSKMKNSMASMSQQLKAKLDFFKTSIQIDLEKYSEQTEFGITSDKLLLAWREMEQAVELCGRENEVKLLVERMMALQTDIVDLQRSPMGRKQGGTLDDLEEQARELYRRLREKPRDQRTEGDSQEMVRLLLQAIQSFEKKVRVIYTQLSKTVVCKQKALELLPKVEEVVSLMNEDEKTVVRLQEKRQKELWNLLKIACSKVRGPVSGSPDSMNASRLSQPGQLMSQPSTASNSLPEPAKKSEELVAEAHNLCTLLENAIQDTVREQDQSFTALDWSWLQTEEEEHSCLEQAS
Format: biochemical
How it was run: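 Radiometric read-out: streptavidin capture of 33P-labelled bio-GST-IκBα(1-54), 0.2 μM, after a 2 h room-temperature reaction started with ATP/[γ-33P]ATP. Enzyme was recombinant His-tagged human IKK-β expressed in Sf21 insect cells, used at 0.6 μg/ml in Tris-HCl pH 7.6/MgCl2 kinase buffer. Compounds added in 2.5% DMSO.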

`COCCNC(=O)c1cc2c(C3CCCNC3)cc(-c3c(O)cccc3OCC3CC3)nc2[nH]c1=O` (centres unmarked) [Example 31-07] and `O=C(NCCO)c1cc2c(C3CCCNC3)cc(-c3c(O)cccc3OCC3CC3)nc2[nH]c1=O` (centres unmarked) [Example 31-20] cannot be ordered by IC50: under 500 nM for the first, under 500 nM for the second.

`N#Cc1c(NCCNC(=O)c2ccccc2)cc(-c2c(O)cccc2OCC2CC2)nc1N` [Example 34-16] and `N#Cc1c(NCCNC(=O)Nc2ccccc2)cc(-c2c(O)cccc2OCC2CC2)nc1N` [Example 34-18] cannot be ordered by IC50: under 500 nM for the first, under 500 nM for the second.

`O=C(NC(c1ccccc1)c1ccccc1)c1cc2c(C3CCCNC3)cc(-c3c(O)cccc3OCC3CC3)nc2[nH]c1=O` (centres unmarked) [Example 31-13] and `C[C@H](NC(=O)c1cc2c(C3CCCNC3)cc(-c3c(O)cccc3OCC3CC3)nc2[nH]c1=O)c1ccccc1` (some centres unmarked) [Example 31-14] cannot be ordered by IC50: under 500 nM for the first, under 500 nM for the second.

`N#Cc1c(NC2CCNCC2)cc(-c2ccccc2O)nc1N` [Example 34-07] and `N#Cc1c(N2CCNCC2)cc(-c2ccccc2O)nc1N` [Example 34-09] cannot be ordered by IC50: under 500 nM for the first, under 500 nM for the second.

`CCCOc1cccc(O)c1-c1cc(C2CCNCC2)c2c(n1)NC(=O)CC2` [Example 27-05] and `CCCOc1cccc(O)c1-c1cc(C2CCCNC2)c2c(n1)NC(=O)CC2` (centres unmarked) [Example 27-02] cannot be ordered by IC50: under 500 nM for the first, under 500 nM for the second.

`CCCOc1cccc(O)c1-c1cc(C2CCCNC2)c2c(n1)NC(=O)C(C(=O)OCC)C2` (centres unmarked) [Example 26-06] and `CCOC(=O)C1Cc2c(C3CCCNC3)cc(-c3c(O)cccc3OCC3CC3)nc2NC1=O` (centres unmarked) [Example 26-03] cannot be ordered by IC50: under 500 nM for the first, under 500 nM for the second.

`O=C(NCC1CCCCC1)c1cc2c(C3CCCNC3)cc(-c3c(O)cccc3OCC3CC3)nc2[nH]c1=O` (centres unmarked) [Example 31-19] and `O=C(NC1CCCCC1)c1cc2c(C3CCCNC3)cc(-c3c(O)cccc3OCC3CC3)nc2[nH]c1=O` (centres unmarked) [Example 31-18] cannot be ordered by IC50: under 500 nM for the first, under 500 nM for the second.

`CN(C)C(=O)c1cc2c(C3CCCNC3)cc(-c3c(O)cccc3OCC3CC3)nc2[nH]c1=O` (centres unmarked) [Example 31-04] and `NC(=O)c1cc2c(C3CCCNC3)cc(-c3c(O)cccc3OCC3CC3)nc2[nH]c1=O` (centres unmarked) [Example 25-08] cannot be ordered by IC50: under 500 nM for the first, under 500 nM for the second.

`O=C(NC1CC1)c1cc2c(C3CCCNC3)cc(-c3c(O)cccc3OCC3CC3)nc2[nH]c1=O` (centres unmarked) [Example 31-21] and `O=C(NC1CCC1)c1cc2c(C3CCCNC3)cc(-c3c(O)cccc3OCC3CC3)nc2[nH]c1=O` (centres unmarked) [Example 31-22] cannot be ordered by IC50: under 500 nM for the first, under 500 nM for the second.

`O=C1CCc2c(C3CCNCC3)cc(-c3c(O)cccc3OCC3CC3)nc2N1` [Example 27-04] and `O=C1CCc2c(C3CCCNC3)cc(-c3c(O)cccc3OCC3CC3)nc2N1` (centres unmarked) [Example 27-03, 7-[2-(cyclopropylmethoxy)-6-hydroxyphenyl]-5-(3-piperidinyl)-3,4-dihydro-1,8-naphthyridin-2(1H)-one] cannot be ordered by IC50: under 500 nM for the first, under 500 nM for the second.

`O=C(NCC(F)(F)F)c1cc2c(C3CCCNC3)cc(-c3c(O)cccc3OCC3CC3)nc2[nH]c1=O` (centres unmarked) [Example 31-27] and `CNC(=O)c1cc2c(C3CCCNC3)cc(-c3c(O)cccc3OCC3CC3)nc2[nH]c1=O` (centres unmarked) [Example 31-03] cannot be ordered by IC50: under 500 nM for the first, under 500 nM for the second.

`O=C(c1cc2c(C3CCCNC3)cc(-c3c(O)cccc3OCC3CC3)nc2[nH]c1=O)N1CCNCC1` (centres unmarked) [Example 31-09] and `O=C(c1cc2c(C3CCCNC3)cc(-c3c(O)cccc3OCC3CC3)nc2[nH]c1=O)N1CCCC1` (centres unmarked) [Example 31-05] cannot be ordered by IC50: under 500 nM for the first, under 500 nM for the second.

`CCOC(=O)C1Cc2c(C3CCNCC3)cc(-c3c(O)cccc3OCC3CC3)nc2NC1=O` (centres unmarked) [Example 26-04] and `NC(=O)C1Cc2c(C3CCCNC3)cc(-c3c(O)cccc3OCC3CC3)nc2NC1=O` (centres unmarked) [Example 26-05] cannot be ordered by IC50: under 500 nM for the first, under 500 nM for the second.

`O=C(NC1CCCC1)c1cc2c(C3CCCNC3)cc(-c3c(O)cccc3OCC3CC3)nc2[nH]c1=O` (centres unmarked) [Example 31-23] and `O=C(NC1CCCCCC1)c1cc2c(C3CCCNC3)cc(-c3c(O)cccc3OCC3CC3)nc2[nH]c1=O` (centres unmarked) [Example 31-24] cannot be ordered by IC50: under 500 nM for the first, under 500 nM for the second.

`N#Cc1c(NCCN)cc(-c2ccccc2O)nc1N` [Example 34-10] and `N#Cc1c(NCCCN)cc(-c2ccccc2O)nc1N` [Example 34-11] cannot be ordered by IC50: under 500 nM for the first, under 500 nM for the second.

`CCC(CC)NC(=O)c1cc2c(C3CCCNC3)cc(-c3c(O)cccc3OCC3CC3)nc2[nH]c1=O` (centres unmarked) [Example 31-25] and `CCCC(CCC)NC(=O)c1cc2c(C3CCCNC3)cc(-c3c(O)cccc3OCC3CC3)nc2[nH]c1=O` (centres unmarked) [Example 31-26] cannot be ordered by IC50: under 500 nM for the first, under 500 nM for the second.

`O=C(NC1Cc2ccccc2C1)c1cc2c(C3CCCNC3)cc(-c3c(O)cccc3OCC3CC3)nc2[nH]c1=O` (centres unmarked) [Example 31-12] and `C[C@@H](NC(=O)c1cc2c(C3CCCNC3)cc(-c3c(O)cccc3OCC3CC3)nc2[nH]c1=O)c1ccccc1` (some centres unmarked) [Example 31-15] cannot be ordered by IC50: under 500 nM for the first, under 500 nM for the second.

`N#Cc1cc2c(C3CCCNC3)cc(-c3c(O)cccc3OCC3CC3)nc2[nH]c1=O` (centres unmarked) [Example 25-06] and `O=c1[nH]c2nc(-c3c(O)cccc3OCC3CC3)cc(C3CCCNC3)c2cc1[N+](=O)[O-]` (centres unmarked) [Example 25-05] cannot be ordered by IC50: under 500 nM for the first, under 500 nM for the second.

First: N#Cc1c(N2CCCNCC2)cc(-c2ccccc2O)nc1N [Example 34-08]
Second: N#Cc1c(N2CCCC(C(N)=O)C2)cc(-c2ccccc2O)nc1N (centres unmarked) [Example 34-06]
The IC50 of the first is lower: 500 to 2000 nM for the first, 2000 to 10000 nM for the second. The first is the more potent here.

`CNCCNc1cc(-c2ccccc2O)nc(N)c1C#N` [Example 34-12] and `N#Cc1c(NCCNCc2ccccc2)cc(-c2ccccc2O)nc1N` [Example 34-13] cannot be ordered by IC50: under 500 nM for the first, under 500 nM for the second.

`O=C(c1cc2c(C3CCCNC3)cc(-c3c(O)cccc3OCC3CC3)nc2[nH]c1=O)N1CCOCC1` (centres unmarked) [Example 31-08] and `CC(C)NC(=O)c1cc2c(C3CCCNC3)cc(-c3c(O)cccc3OCC3CC3)nc2[nH]c1=O` (centres unmarked) [Example 31-10] cannot be ordered by IC50: under 500 nM for the first, under 500 nM for the second.

`CN(C)CCNC(=O)c1cc2c(C3CCCNC3)cc(-c3c(O)cccc3OCC3CC3)nc2[nH]c1=O` (centres unmarked) [Example 31-11] and `C[C@H](NC(=O)c1cc2c(C3CCCNC3)cc(-c3c(O)cccc3OCC3CC3)nc2[nH]c1=O)C(=O)O` (some centres unmarked) [Example 31-16] cannot be ordered by IC50: under 500 nM for the first, under 500 nM for the second.

`O=C(NCCc1ccccc1)c1cc2c(C3CCCNC3)cc(-c3c(O)cccc3OCC3CC3)nc2[nH]c1=O` (centres unmarked) [Example 31-17] and `O=C(NCc1ccccc1)c1cc2c(C3CCCNC3)cc(-c3c(O)cccc3OCC3CC3)nc2[nH]c1=O` (centres unmarked) [Example 31-06] cannot be ordered by IC50: under 500 nM for the first, under 500 nM for the second.

`N#Cc1c(NCCNCc2ccccc2)cc(-c2c(O)cccc2OCC2CC2)nc1N` [Example 34-15] and `N#Cc1c(NCCNS(=O)(=O)c2ccccc2)cc(-c2c(O)cccc2OCC2CC2)nc1N` [Example 34-17] cannot be ordered by IC50: under 500 nM for the first, under 500 nM for the second.

`O=c1[nH]c2nc(-c3c(O)cccc3OCC3CC3)cc(C3CCCNC3)c2cc1S(=O)(=O)c1ccccc1` (centres unmarked) [Example 25-07] and `CC(=O)NCCNc1cc(-c2c(O)cccc2OCC2CC2)nc(N)c1C#N` [Example 34-19] cannot be ordered by IC50: under 500 nM for the first, under 500 nM for the second.

From patent publication US6984649B1, “Pyridine derivatives” (Bayer Aktiengesellschaft, priority 2000, dated 2006)
